Data published in PMC4976201, “Total synthesis of teixobactin” (Nature Communications, 2016).

Tested on: Gram-positive bacterial pathogens
Assay: Antibacterial activity on Gram-positive bacteria, stated in words
Assay type: cell-based
Settings: MIC on various Gram-positive bacteria strains
Text: Synthetic teixobactin and its analogues were subjected to the assessment of their antimicrobial activities by determining their minimal inhibitory concentration on various Gram-positive bacteria strains including methicillin-susceptible S. aureus strain ATCC29213 and methicillin-resistant S. aureus clinical isolates. […] In this effort, the original stereo-configuration of the amino-acid residue should be thoroughly scrutinized. From our study, it is encouraging to find that Orn-containing teixobactin analogues maintained modest antibacterial activity. Since Orn is readily available as compared with L-allo-End and the synthesis of the Orn-containing cyclic depsipeptide (7–11) gave the best yield among all the analogue syntheses, which is amenable to a large-scale synthesis. Through the above-developed convergent synthetic strategy, various linear hexapeptide (1–6), such as 11, can be readily prepared and ligated to the Orn-containing the cyclic depsi-pentapeptide (7–11) to investigate the contribution of each amino acid in the linear peptide fragment towards the antibacterial activity, which will lead to the optimal structure for the development of teixobactin with improved properties.

| SMILES | antibacterial activity compared with natural teixobactin |
| --- | --- |
| CC[C@@H](C)[C@@H](NC(=O)[C@@H](CCC(N)=O)NC(=O)[C@H](CO)NC(=O)[C@@H](NC(=O)[C@@H](Cc1ccccc1)NC)[C@@H](C)CC)C(=O)N[C@H](C(=O)N[C@@H](CO)C(=O)N[C@H]1C(=O)N[C@@H](C)C(=O)N[C@@H](CCCNC(=N)N)C(=O)N[C@@H]([C@@H](C)CC)C(=O)O[C@H]1C)[C@@H](C)CC [compound 14] | reduced antibacterial activities |
| CC[C@H](C)[C@H](NC(=O)[C@@H](Cc1ccccc1)NC)C(=O)N[C@@H](CO)C(=O)N[C@H](CCC(N)=O)C(=O)N[C@@H](C(=O)N[C@H](C(=O)N[C@@H](CO)C(=O)N[C@H]1C(=O)N[C@@H](C)C(=O)N[C@@H](CCCN)C(=O)N[C@@H]([C@@H](C)CC)C(=O)O[C@H]1C)[C@@H](C)CC)[C@@H](C)CC [compound 16] | reduced antibacterial activities |
